In the assay the test system is ADP-stimulated platelets. The experiment in a line: ADP-stimulated platelet aggregation assay (gel-filtered human platelets). Format: cell-based. The conditions noted are these: ADP-stimulated gel-filtered human platelets (2×10^8 per ml), fibrinogen 100 ug/ml, Ca^2+ 1 mM, 10 mM ADP, 37° C., read-out: IC50 (inhibition of aggregation by 50% relative to a control). An excerpt: The activity of these fibrinogen receptor antagonists is illustrated below. One test used to evaluate fibrinogen receptor antagonist activity is based on evaluation of inhibition of ADP-stimulated platelets. Aggregation requires that fibrinogen bind to and occupy the platelet fibrinogen receptor site. Inhibitors of fibrinogen binding inhibit aggregation. In the ADP-stimulated platelet aggregation assay used to determine inhibition associated with these fibrinogen receptor antagonists, human platelets are isolated from fresh blood, collected into acid citrate/dextrose by differential centrifugation followed by gel filtration on Sepharose 2B in divalent ion-free Tyrode's buffer (pH 7.4) containing 2% bovine serum albumin.
Platelet aggregation is measured at 37° C. in a Chronolog aggregometer. The reaction mixture contains gel-filtered human platelets (2×10^8 per ml), fibrinogen (100 micrograms per ml (ug/ml)), Ca^2+ (1 mM), and the fibrinogen receptor antagonists tested. The aggregation is initiated by adding 10 mM ADP 1 minute after the other components are added. The reaction is then allowed to proceed for at least 2 minutes. The extent of inhibition of aggregation is expressed as the percentage of the rate of aggregation observed in the absence of inhibitor. The IC50 is the dose of a particular compound inhibiting aggregation by 50% relative to a control lacking the compound. […]

By IC50 is commonly meant the concentration at which inhibition is half-maximal. As for `C[C@H](CC(=O)O)NC(=O)CN1CCCC(CCC2CCNCC2)C1=O` (stereo partly shown), the 50% inhibitory concentration (IC50) came to 100 µM.

For the origin of these results see patent publication US5686607A, “Pyridyl ethylation of lactam derivatives” (Merck & Co., Inc., priority 1996, dated 1997).
